Test results published in patent publication US8785457B2 (Cellzome Limited, priority 2009, dated 2014).
Like-named read-outs stand apart in the source and are kept apart here. One block for each molecule: values may come before it.

What was measured:
mTOR = target: T1, mTOR (Homo sapiens, UniProt P42345); test: mTOR kinobeads assay (competitive binding in Jurkat cell lysate, immunodetection)
T1 construct: endogenous in cells; host or cells: Jurkat, clone E6-1 (ATCC TIB-152) cell lysate
How it was run: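 IC50 derived from dose-response curves of mTOR captured on immobilized phenylmorpholin-chromen beads, detected by antibody dot blot with infrared fluorescence.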

PI3 Kbeta (PI3 Kb) = target: T2, PI3 Kbeta (PI3 Kb) (Homo sapiens, UniProt P42338); test: kinobeads assay, PI3Kbeta; assay type: binding
T2 construct: endogenous in cells; host or cells: cell lysate
T2 sequence (P42338 whole entry): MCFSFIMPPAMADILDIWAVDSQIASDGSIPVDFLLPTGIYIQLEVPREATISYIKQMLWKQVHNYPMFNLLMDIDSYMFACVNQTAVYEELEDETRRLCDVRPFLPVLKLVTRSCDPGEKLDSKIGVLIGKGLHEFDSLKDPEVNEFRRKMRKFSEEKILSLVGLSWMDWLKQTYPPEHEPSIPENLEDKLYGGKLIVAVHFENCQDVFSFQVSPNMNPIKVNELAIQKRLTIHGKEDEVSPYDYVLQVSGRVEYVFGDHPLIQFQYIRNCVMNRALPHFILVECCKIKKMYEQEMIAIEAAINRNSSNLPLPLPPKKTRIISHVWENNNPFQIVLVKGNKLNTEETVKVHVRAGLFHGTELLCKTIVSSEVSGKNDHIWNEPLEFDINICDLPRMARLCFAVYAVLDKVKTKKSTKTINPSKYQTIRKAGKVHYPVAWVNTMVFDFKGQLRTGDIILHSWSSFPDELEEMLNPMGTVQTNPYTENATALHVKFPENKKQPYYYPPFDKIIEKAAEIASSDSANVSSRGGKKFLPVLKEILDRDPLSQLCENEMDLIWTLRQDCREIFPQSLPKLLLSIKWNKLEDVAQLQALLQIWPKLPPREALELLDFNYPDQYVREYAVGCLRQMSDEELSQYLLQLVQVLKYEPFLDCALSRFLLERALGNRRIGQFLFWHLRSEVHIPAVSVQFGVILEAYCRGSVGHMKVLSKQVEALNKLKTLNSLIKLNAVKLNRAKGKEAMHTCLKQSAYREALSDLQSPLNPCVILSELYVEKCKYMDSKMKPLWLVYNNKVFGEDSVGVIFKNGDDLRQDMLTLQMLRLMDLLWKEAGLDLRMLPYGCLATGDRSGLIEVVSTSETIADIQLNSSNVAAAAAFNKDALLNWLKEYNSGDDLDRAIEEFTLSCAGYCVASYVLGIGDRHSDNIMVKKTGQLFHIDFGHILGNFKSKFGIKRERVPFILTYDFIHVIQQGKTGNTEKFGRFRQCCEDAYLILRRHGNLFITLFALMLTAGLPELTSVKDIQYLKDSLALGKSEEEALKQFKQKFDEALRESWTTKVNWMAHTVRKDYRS
T2 sequence (P27986 whole entry partner): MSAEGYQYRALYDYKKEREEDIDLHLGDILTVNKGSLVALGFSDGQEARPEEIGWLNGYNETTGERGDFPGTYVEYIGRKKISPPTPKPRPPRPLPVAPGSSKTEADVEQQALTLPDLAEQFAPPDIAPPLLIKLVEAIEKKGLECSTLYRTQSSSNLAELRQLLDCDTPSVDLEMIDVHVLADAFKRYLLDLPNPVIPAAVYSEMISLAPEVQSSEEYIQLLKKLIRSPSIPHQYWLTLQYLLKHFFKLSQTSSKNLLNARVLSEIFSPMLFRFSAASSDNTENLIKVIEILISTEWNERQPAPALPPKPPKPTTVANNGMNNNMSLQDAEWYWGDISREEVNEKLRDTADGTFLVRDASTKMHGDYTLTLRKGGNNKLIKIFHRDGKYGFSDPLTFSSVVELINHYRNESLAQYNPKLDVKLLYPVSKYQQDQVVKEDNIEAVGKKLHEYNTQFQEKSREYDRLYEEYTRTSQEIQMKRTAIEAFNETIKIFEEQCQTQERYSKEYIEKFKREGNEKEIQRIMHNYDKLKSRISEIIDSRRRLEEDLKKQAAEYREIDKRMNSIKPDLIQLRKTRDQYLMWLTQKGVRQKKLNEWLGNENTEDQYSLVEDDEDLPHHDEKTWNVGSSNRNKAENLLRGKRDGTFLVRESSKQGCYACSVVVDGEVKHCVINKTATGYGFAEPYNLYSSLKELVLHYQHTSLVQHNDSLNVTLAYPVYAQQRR
How it was run: (§1)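 IC50 values derive from per-kinase dose-response curves in a lysate-based competition binding format. Kinases retained on phenylmorpholin-chromen beads in the presence of compound were eluted and detected by multiplexed immunodetection.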

PI3 Kgamma (PI3 Kg) = target: T3, PI3 Kgamma (PI3 Kg) (Homo sapiens, UniProt P48736); test: kinobeads assay, PI3Kgamma; assay type: binding
T3 construct: endogenous in cells; host or cells: cell lysate
T3 sequence (P48736 whole entry): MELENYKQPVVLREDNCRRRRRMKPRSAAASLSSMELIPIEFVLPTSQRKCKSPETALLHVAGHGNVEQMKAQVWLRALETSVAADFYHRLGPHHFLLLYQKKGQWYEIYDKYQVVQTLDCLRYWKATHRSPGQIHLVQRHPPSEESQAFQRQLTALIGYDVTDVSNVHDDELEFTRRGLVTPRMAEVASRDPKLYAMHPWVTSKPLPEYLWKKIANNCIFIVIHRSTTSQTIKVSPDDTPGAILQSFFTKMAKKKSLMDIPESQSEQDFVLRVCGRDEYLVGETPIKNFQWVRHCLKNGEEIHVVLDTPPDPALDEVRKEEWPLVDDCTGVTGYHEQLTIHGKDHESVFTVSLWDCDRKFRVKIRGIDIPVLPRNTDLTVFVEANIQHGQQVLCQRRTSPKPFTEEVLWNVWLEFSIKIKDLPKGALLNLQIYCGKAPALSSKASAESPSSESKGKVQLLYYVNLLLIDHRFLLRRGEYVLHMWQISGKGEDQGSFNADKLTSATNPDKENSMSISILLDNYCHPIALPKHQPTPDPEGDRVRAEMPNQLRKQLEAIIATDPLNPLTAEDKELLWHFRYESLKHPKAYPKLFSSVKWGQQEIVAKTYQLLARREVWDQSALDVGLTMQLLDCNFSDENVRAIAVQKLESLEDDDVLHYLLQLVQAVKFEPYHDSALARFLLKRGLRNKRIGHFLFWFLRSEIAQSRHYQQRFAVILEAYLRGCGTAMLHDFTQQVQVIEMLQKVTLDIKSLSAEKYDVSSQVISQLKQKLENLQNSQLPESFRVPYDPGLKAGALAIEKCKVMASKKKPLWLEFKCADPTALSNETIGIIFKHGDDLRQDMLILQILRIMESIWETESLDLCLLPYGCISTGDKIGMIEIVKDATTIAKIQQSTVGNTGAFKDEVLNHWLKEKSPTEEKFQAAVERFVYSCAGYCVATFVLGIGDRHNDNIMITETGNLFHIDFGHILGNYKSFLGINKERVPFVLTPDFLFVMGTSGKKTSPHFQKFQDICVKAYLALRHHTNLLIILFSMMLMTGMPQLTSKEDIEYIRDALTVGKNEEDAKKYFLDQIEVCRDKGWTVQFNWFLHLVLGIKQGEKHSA
How it was run: as §1

PI3Kalpha (PI3Ka) = target: T4, PI3Kalpha (PI3Ka) (Homo sapiens, UniProt P42336); test: kinobeads assay, PI3Kalpha; assay type: binding; settings: for Inhibition values (IC50) PI3Ka: kinobeads assay, Table 6
T4 construct: endogenous in cells; host or cells: cell lysate
T4 sequence (P42336 whole entry): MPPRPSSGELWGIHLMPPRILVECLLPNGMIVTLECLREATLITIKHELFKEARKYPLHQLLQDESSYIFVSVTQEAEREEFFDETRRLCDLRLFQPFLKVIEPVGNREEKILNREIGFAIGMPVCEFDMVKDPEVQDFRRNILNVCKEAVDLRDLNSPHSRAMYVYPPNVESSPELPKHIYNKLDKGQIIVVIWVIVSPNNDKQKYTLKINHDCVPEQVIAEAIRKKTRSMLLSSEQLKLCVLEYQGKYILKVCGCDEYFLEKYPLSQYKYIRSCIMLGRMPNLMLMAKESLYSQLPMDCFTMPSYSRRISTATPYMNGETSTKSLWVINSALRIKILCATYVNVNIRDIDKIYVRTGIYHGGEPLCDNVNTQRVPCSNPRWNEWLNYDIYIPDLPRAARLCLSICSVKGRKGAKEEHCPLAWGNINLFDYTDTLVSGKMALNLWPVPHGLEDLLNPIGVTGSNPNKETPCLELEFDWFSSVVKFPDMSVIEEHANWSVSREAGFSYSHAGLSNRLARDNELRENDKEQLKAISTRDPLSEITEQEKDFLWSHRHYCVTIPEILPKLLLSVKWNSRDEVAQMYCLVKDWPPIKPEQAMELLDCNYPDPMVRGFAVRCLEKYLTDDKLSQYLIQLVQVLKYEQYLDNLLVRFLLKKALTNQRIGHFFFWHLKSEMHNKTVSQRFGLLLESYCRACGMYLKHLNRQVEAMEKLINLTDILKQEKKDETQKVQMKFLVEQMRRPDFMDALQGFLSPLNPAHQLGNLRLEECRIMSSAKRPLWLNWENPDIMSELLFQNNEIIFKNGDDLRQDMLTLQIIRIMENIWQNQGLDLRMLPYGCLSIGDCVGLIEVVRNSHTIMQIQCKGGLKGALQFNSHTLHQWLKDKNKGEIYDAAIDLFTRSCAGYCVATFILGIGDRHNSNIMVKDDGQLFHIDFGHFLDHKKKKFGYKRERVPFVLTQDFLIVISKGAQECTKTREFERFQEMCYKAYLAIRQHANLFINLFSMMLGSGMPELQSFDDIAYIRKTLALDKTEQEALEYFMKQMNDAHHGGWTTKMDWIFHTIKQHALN
T4 sequence (P27986 whole entry partner): as the sequence (P27986 whole entry partner) above
How it was run: as §1

[1] = kinobeads assay, Table 4, read-out: Inhibition values (IC50) mTor
[2] = kinobeads assay, Table 6, read-out: Inhibition values (IC50) mTOR
[3] = kinobeads assay, Table 6, read-out: Inhibition values (IC50) PI3Kb
[4] = kinobeads assay, Table 6, read-out: Inhibition values (IC50) PI3Kg
[5] = Further Kinobeads Data, read-out: mTor
[6] = Further Kinobeads Data, read-out: PI3Kb
[7] = Further Kinobeads Data, read-out: PI3Kg

IC50 (mTOR; [5]): < 0.1 µM
IC50 (PI3 Kbeta (PI3 Kb); [6]): > 10 µM
IC50 (PI3 Kgamma (PI3 Kg); [7]): > 10 µM
PI3Ka (PI3Kalpha (PI3Ka); Further Kinobeads Data): D (D >10 μM)
Compound: C[C@H]1COCCN1c1nc(-c2ccc(NC(=O)NC3CC3)cc2F)nc2c1CN(C)C2 [Example 147, (S)-1-cyclopropyl-3-(3-fluoro-4-(6-methyl-4-(3-methylmorpholino)-6,7-dihydro-5H-pyrrolo[3,4-d]pyrimidin-2-yl)phenyl)urea]

IC50 (mTOR; [5]): < 0.1 µM
IC50 (PI3 Kbeta (PI3 Kb); [6]): > 10 µM
IC50 (PI3 Kgamma (PI3 Kg); [7]): > 10 µM
PI3Ka (PI3Kalpha (PI3Ka); Further Kinobeads Data): D (D >10 μM)
Compound: C[C@H]1COCCN1c1nc(-c2ccc(NC(=O)NC3CC3)cc2F)nc2c1CCNC2 [Example 163, (S)-1-cyclopropyl-3-(3-fluoro-4-(4-(3-methylmorpholino)-5,6,7,8-tetrahydropyrido[3,4-d]pyrimidin-2-yl)phenyl)urea]

IC50 (mTOR; [1]): < 0.1 µM
IC50 (mTOR; [2]): < 0.1 µM
IC50 (PI3 Kbeta (PI3 Kb); [3]): > 10 µM
IC50 (PI3 Kgamma (PI3 Kg); [4]): > 10 µM
Inhibition values (IC50) PI3Ka (PI3Kalpha (PI3Ka)): D (D >10 μM)
Compound: CCNC(=O)Nc1ccc(-c2nc3c(c(N4CCOC[C@@H]4C)n2)CCN(C)C3)cc1 [Example 35, (S)-1-ethyl-3-(4-(7-methyl-4-(3-methylmorpholino)-5,6,7,8-tetrahydropyrido[3,4-d]pyrimidin-2-yl)phenyl)urea]

IC50 (mTOR; [1]): < 0.1 µM
IC50 (mTOR; [2]): < 0.1 µM
IC50 (PI3 Kbeta (PI3 Kb); [3]): > 10 µM
IC50 (PI3 Kgamma (PI3 Kg); [4]): > 10 µM
Inhibition values (IC50) PI3Ka (PI3Kalpha (PI3Ka)): D (D >10 μM)
Compound: CCNC(=O)Nc1ccc(-c2nc3c(c(N4CCOC[C@@H]4C)n2)CCN(C(=O)C2CC2)C3)cc1 [Example 56, (S)-1-(4-(7-(cyclopropanecarbonyl)-4-(3-methylmorpholino)-5,6,7,8-tetrahydropyrido[3,4-d]pyrimidin-2-yl)phenyl)-3-ethylurea]

IC50 (mTOR; [5]): < 0.1 µM
IC50 (PI3 Kbeta (PI3 Kb); [6]): > 10 µM
IC50 (PI3 Kgamma (PI3 Kg); [7]): > 10 µM
PI3Ka (PI3Kalpha (PI3Ka); Further Kinobeads Data): D (D >10 μM)
Compound: COC(=O)N1Cc2nc(-c3ccc(NC(=O)NC4CC4)cc3F)nc(N3CCOC[C@H]3C)c2C1 [Example 180, (R)-methyl 2-(4-(3-cyclopropylureido)-2-fluorophenyl)-4-(3-methylmorpholino)-5H-pyrrolo[3,4-d]pyrimidine-6(7H)-carboxylate]

IC50 (mTOR; [5]): < 0.1 µM
IC50 (PI3 Kbeta (PI3 Kb); [6]): > 10 µM
IC50 (PI3 Kgamma (PI3 Kg); [7]): > 10 µM
PI3Ka (PI3Kalpha (PI3Ka); Further Kinobeads Data): D (D >10 μM)
Compound: C[C@H]1COCCN1c1nc(-c2ccc(NC(=O)NC3CC3)cc2F)nc2c1CN(S(C)(=O)=O)C2 [Example 177, (S)-1-cyclopropyl-3-(3-fluoro-4-(4-(3-methylmorpholino)-6-(methylsulfonyl)-6,7-dihydro-5H-pyrrolo[3,4-d]pyrimidin-2-yl)phenyl)urea]

More lines, now with the values behind:

Compound: CC(C)CN1CCc2c(nc(-c3ccc(NC(=O)NC4CC4)cc3)nc2N2CCOC[C@@H]2C)C1 [Example 42, (S)-1-cyclopropyl-3-(4-(7-isobutyl-4-(3-methylmorpholino)-5,6,7,8-tetrahydropyrido[3,4-d]pyrimidin-2-yl)phenyl)urea]
IC50 (mTOR; [1]): < 0.1 µM
IC50 (mTOR; [2]): < 0.1 µM
IC50 (PI3 Kbeta (PI3 Kb); [3]): > 10 µM
IC50 (PI3 Kgamma (PI3 Kg); [4]): > 10 µM
Inhibition values (IC50) PI3Ka (PI3Kalpha (PI3Ka)): D (D >10 μM)

Compound: CCNC(=O)Nc1ccc(-c2nc3c(c(N4CCOCC4)n2)CN(C(=O)OCC)C3)c(F)c1 [Example 151, Ethyl 2-(4-(3-ethylureido)-2-fluorophenyl)-4-morpholino-5H-pyrrolo[3,4-d]pyrimidine-6(7H)-carboxylate]
IC50 (mTOR; [5]): 0.1 to 1 µM
IC50 (PI3 Kbeta (PI3 Kb); [6]): > 10 µM
IC50 (PI3 Kgamma (PI3 Kg); [7]): 1 to 10 µM
IC50 (PI3Kalpha (PI3Ka); Further Kinobeads Data, read-out: PI3Ka): 1 to 10 µM

Compound: CCNC(=O)Nc1ccc(-c2nc3c(c(N4CCOC[C@@H]4C)n2)CN(C(=O)OC)C3)c(F)c1 [Example 152, (S)-methyl 2-(4-(3-ethylureido)-2-fluorophenyl)-4-(3-methylmorpholino)-5H-pyrrolo[3,4-d]pyrimidine-6-(7H)-carboxylate]
IC50 (mTOR; [5]): 0.1 to 1 µM
IC50 (PI3 Kbeta (PI3 Kb); [6]): > 10 µM
IC50 (PI3 Kgamma (PI3 Kg); [7]): > 10 µM
PI3Ka (PI3Kalpha (PI3Ka); Further Kinobeads Data): D (D >10 μM)

Compound: COC(=O)N1Cc2nc(-c3ccc(NC(=O)NC4CC4)cc3F)nc(N3CCOCC3)c2C1 [Example 173, Methyl 2-(4-(3-cyclopropylureido)-2-fluorophenyl)-4-morpholino-5H-pyrrolo[3,4-d]pyrimidine-6(7H)-carboxylate]
IC50 (mTOR; [5]): < 0.1 µM
IC50 (PI3 Kbeta (PI3 Kb); [6]): > 10 µM
IC50 (PI3 Kgamma (PI3 Kg); [7]): > 10 µM
PI3Ka (PI3Kalpha (PI3Ka); Further Kinobeads Data): D (D >10 μM)

Compound: CCNC(=O)Nc1ccc(-c2nc3c(c(N4CCOCC4)n2)CN(C)C3)c(F)c1 [Example 154, 1-ethyl-3-(3-fluoro-4-(6-methyl-4-morpholino-6,7-dihydro-5H-pyrrolo[3,4-d]pyrimidin-2-yl)phenyl)urea]
IC50 (mTOR; [5]): 0.1 to 1 µM
IC50 (PI3 Kbeta (PI3 Kb); [6]): > 10 µM
IC50 (PI3 Kgamma (PI3 Kg); [7]): > 10 µM
PI3Ka (PI3Kalpha (PI3Ka); Further Kinobeads Data): D (D >10 μM)

Compound: CC(C)N1Cc2nc(-c3ccc(NC(=O)NCCO)cc3F)nc(N3CCOC[C@@H]3C)c2C1 [Example 187, (S)-1-(3-fluoro-4-(6-isopropyl-4-(3-methylmorpholino)-6,7-dihydro-5H-pyrrolo[3,4-d]pyrimidin-2-yl)phenyl)-3-(2-hydroxyethyl)urea]
IC50 (mTOR; [5]): < 0.1 µM
IC50 (PI3 Kbeta (PI3 Kb); [6]): > 10 µM
IC50 (PI3 Kgamma (PI3 Kg); [7]): > 10 µM
PI3Ka (PI3Kalpha (PI3Ka); Further Kinobeads Data): D (D >10 μM)
